This is an account of results in patent publication US20050129687A1, “Use of inhibitors of PACAP receptor activity for treatment of overactive bladder and pelvic floor pain syndrome” (University of Vermont and State Agricultural College, priority 2003, published 2005).

The test system of experiment [1] is rat with chronic CYP-induced cystitis. The experiment in a line: Conscious cystometry in rats with chronic CYP-induced cystitis. The format is in vivo. As to the method:
(§1) Chemical cystitis was induced in adult female Wistar rats by cyclophosphamide (CYP), which is metabolized to acrolein, an irritant eliminated in the urine. CYP (Sigma ImmunoChemicals, St. Louis, Mo.) was administered in one of the following ways: (1) 4 hr (150 mg/kg; i.p.) prior to euthanasia of the animals to elicit acute inflammation (n=6); (2) 48 hr (150 mg/kg; i.p.) prior to euthanasia to examine an intermediate inflammation (n=6) or (3) administered every third day for 10 days to elicit chronic inflammation (n=8; 75 mg/kg; i.p). All injections of CYP were performed under isoflurane (2%) anesthesia.
(§2) Rats were anesthetized with isoflurane anesthesia (2-3%) and the atlanto-occiptal membrane was exposed by aseptic surgical technique. Polyethylene tubing (PE-10, Clay Adams, Parsippany, N.J.) was inserted under the membrane and passed to the lumbosacral spinal cord (L6-S1). Correct catheter placement was confirmed at time of euthanasia. The intrathecal catheter was secured in place with a small drop of dental cement and the incision was closed in two layers. The intravesical catheter was then inserted.
(§3) A lower midline abdominal incision was performed under general anesthesia (ketamine 60 mg/kg, xylazine 10 mg/kg, i.p.), and polyethylene tubing (PE-50) with the end flared by heat was inserted into the dome of the bladder and secured in place with a 6-0 nylon purse string suture. The distal end of the tubing was sealed, tunneled subcutaneously and externalized at the back of the neck, out of the animal's reach. Abdominal and neck incisions were closed with 4-0 nylon sutures. Animals were maintained for 72 hours after survival surgery to ensure complete recovery.
(§4) Control rats and rats treated with CYP (acute; 4 hr or intermediate; 48 hr) or SCI rats and also treated with a specific PACAP antagonist, PACAP6-38 or vehicle (0.9% saline), were evaluated with cystometry. For conscious cystometry, a rat was placed unrestrained in a cage. Prior to the start of the recording, the bladder was emptied and the catheter was connected via a T-tube to a pressure transducer (Grass® Model PT300, West Warwick, R.I.) and microinjection pump (Harvard Apparatus 22, South Natick, Mass.). We infused a 0.9% saline solution at room temperature into the bladder at a rate of 10 ml/hour. Intravesical pressure was recorded continuously using a Neurodata Acquisition System (Grass® Model 15, Astro-Med, Inc, West Warwick, R.I.). At least four reproducible micturition cycles were recorded after the initial stabilization period of 25-30 minutes. The following cystometric parameters were recorded in each animal: filling pressure (pressure at the beginning of the bladder filling), threshold pressure (bladder pressure immediately prior to micturition), micturition pressure (the maximal bladder pressure during micturition), micturition interval (time between micturition events), void volume and presence or absence of non-voiding bladder contractions (NVC). For the present study, NVCs were defined as increases in bladder pressure of at least 7 cm H2O without release of urine.
The effects of a specific PAC1 receptor antagonist, PACAP6-38 (i.t. or intravesical) (Peninsula Pharmaceuticals) or vehicle (0.9% saline, i.t. or intravesical; artificial cerebrospinal fluid, aCSF, i.t.) on lower urinary tract function in rats treated with CYP (4 hr, 48 hr or chronic cystitis) were evaluated. Separate groups of rats were used to evaluate the effects of PACAP6-38 given either through the i.t. catheter or the intravesical catheter. After recording at least three reproducible micturition cycles, PACAP6-38 or saline was administered through the catheters (i.t. or intravesical) and the effects evaluated.
All values are means±S.E.M. Comparisons of urodynamic parameters between control and experimental treatments were made using the Fischer exact test. […]

Experiment [2] concerns rat with chronic spinal cord injury (SCI). The experiment in a line: Conscious cystometry in rats with chronic spinal cord injury (SCI). The format is in vivo. As to the method:
A complete spinal cord transaction was performed in adult, female rats anesthetized with isoflurane (2-3%). Animals received antibiotic and analgesic treatment following surgery. Animals were evaluated using conscious cystometry six-weeks following surgery when each animal had recovered automatic micturition. The University of Vermont IACUC approved all experimental procedures (protocol #02-108, 03-030, 03-148D) involving animal use. Animal care was under the supervision of the University of Vermont's Office of Animal Care in accordance with the Association for Assessment and Accreditation of Laboratory Animal Care and National Institutes of Health guidelines. All efforts were made to minimize animal stress/distress and suffering and to use the minimum number of animals. Currently, no alternatives exist to the use of whole, live animals in the present study.
as §2, §3, §4
All values are means±S.E.M. Comparisons of urodynamic parameters between control and experimental treatments were made using the […]. When F ratios exceeded the critical value (P≦0.05), the Dunnett's post-hoc test was used to compare the control mean with each experimental mean.

For experiment [3], the system named is rat with acute (4 hr) CYP-induced cystitis. The experiment in a line: Conscious cystometry in rat with acute (4 hr) CYP-induced cystitis, intravesical delivery. To be noted: 200 nmol intravesically. Format: in vivo. On the procedure:
as §1, §3
Control rats and rats treated with CYP (acute; 4 hr or intermediate; 48 hr) or SCI rats and also treated with a specific PACAP antagonist, PACAP6-38 or vehicle (0.9% saline), were evaluated with cystometry. […] Intravesical pressure was recorded continuously using a Neurodata Acquisition System (Grass® Model 15, Astro-Med, Inc, West Warwick, R.I.). At least four reproducible micturition cycles were recorded after the initial stabilization period of 25-30 minutes. The following cystometric parameters were recorded in each animal: filling pressure (pressure at the beginning of the bladder filling), threshold pressure (bladder pressure immediately prior to micturition), micturition pressure (the maximal bladder pressure during micturition), micturition interval (time between micturition events), void volume and presence or absence of non-voiding bladder contractions (NVC). […]

A further experiment has as its system tracheal muscles in cats. To be noted: cited from earlier work.
Where [4] appears, read: 1 nmol intrathecally, rat with chronic CYP-induced cystitis (FIG. 1).
[5] abbreviates: acute (4 hr) CYP-induced cystitis (FIG. 4).
Setting [6] is: 1 nmol intrathecally, rat with chronic SCI.
Setting [7] is: 1 nmol, SCI rats compared to SCI rats treated with vehicle (aCSF) (FIG. 7).

Where no end group is shown, it is not given here.

Regarding “Pituitary adenylate cyclase-activating polypeptide (HSDGIFTDSYSRYRKQMAVKKYLAAVLGKRYKQRVKNK; ends and bridges not checked) [PACAP, polypeptide hormone that stimulates adenylate cyclase in pituitary cells; used as agonist]”, the “effect of agonist on the PACAP6-38-induced change in intercontraction interval” value in experiment [1] (rats treated chronically with CYP, after PACAP6-38 treatment) is “reversed”. Moreover, the “effect of intrathecal agonist on the PACAP6-38-induced reduction of pressures” value in experiment [2] (SCI rats, intrathecal, after PACAP6-38 (FIG. 7)) is recorded as “blocked this effect”.
For “Phe-Thr-Asp-Ser-Tyr-Ser-Arg-Tyr-Arg-Lys-Gln-Met-Ala-Val-Lys-Lys-Tyr-Leu-Ala-Ala-Val-Leu-Gly-Lys-Arg-Tyr-Lys-Gln-Arg-Val-Lys-Asn-Lys (FTDSYSRYRKQMAVKKYLAAVLGKRYKQRVKNK) [PACAP6-38]”, the “persistence of drug effects after administration” value was “at least 5 hours” in experiment [1] (1 nmol intrathecally, rat with chronic CYP-induced cystitis); “at least 2 hours” in experiment [3] (acute (4 hr) CYP-induced cystitis); “at least 5 hours” in experiment [2] (setting [6]). In addition, the “appearance of non-voiding bladder contractions” value in experiment [1] (setting [4]) and in experiment [3] (setting [5]) was “reduced” each time. In addition, the intercontraction interval result was “increased” in experiment [1] (setting [4]); “significantly lengthened” in experiment [1] (rats treated chronically with CYP, 1 or 10 nmol (FIG. 3)); “increased” in experiment [3] (setting [5]). Besides, the “Non-voiding bladder contractions per cycle (NVC/cycle)” value in experiment [1] (rats treated chronically with CYP, compared to untreated rats with CYP-induced cystitis (FIG. 2)) is on record as “significantly reduced”. Further, in experiment [2] (setting [6]), the Non-voiding bladder contractions result was “not eliminated by treatment but reduced in pressure”. For the same substance, the micturition pressures result in experiment [2] (1 nmol intrathecally, rat with chronic SCI (FIGS. 5 and 6)) is listed as “reduced”. Moreover, the Intermicturition pressure entry in experiment [2] (setting [7]) is reported as “reduced”. Besides, the micturition pressure result in experiment [2] (setting [7]) is on record as “reduced”. Further, the threshold pressure result in experiment [2] (setting [7]) is listed as “reduced”. Besides, the “inhibitory-NANC (non-adrenergic, non-cholinergic) relaxation” value in the experiment on tracheal muscles in cats is given as “partially but significantly inhibited”.
